Assay results as given in patent US20050130989A1, “N-arylheteroaromatic products compositions containing them and use thereof” (Aventis Pharma S. A., priority 2003, published 2005).
Where two headings read alike, the source gives them in different places. Each block holds one compound with its values, some of them ahead of it.

Experiments:
HCT116 cells = assay: Inhibition of proliferation of the human colon tumor line HCT116 ([14C]-thymidine incorporation); type: cell-based; conditions: 48 hours at 37° C., read-out: Inhibition of HCT116 proliferation IC 50 (μm)
Description: The proliferation of HCT116 cells is evaluated by measuring the incorporation of [^14C]-thymidine in the following manner. The HCT 116 cells (obtained from the ATCC) are cultured in a DMEM medium (Gibco) containing 10% fetal calf serum and antibiotics (1% penicillin, 1% streptomycin). To perform the proliferation test, the cells are inoculated in cytostar 96-well microplates (Amersham), at a rate of 5000 cells per well. [^14C]-thymidine (0.1 μCi/well) and the products to be evaluated are then added. Variable concentrations of products up to 10 μm are used; the DMSO (solvent used to dissolve the products) should not exceed 0.5% in the medium. 48 hours after incubation at 37° C., the radioactivity incorporated into the cells is measured by counting the plate in a TRI-LUX counter (Wallac). The IC50 is defined as the concentration of product that reduces the radioactivity by 50% compared with an untreated control. A product whose IC50 is less than 3 μm is considered cytotoxic.

tubulin = molecular target: T1, tubulin (Sus scrofa, UniProt P02550+P02554); assay: Evaluation of the inhibition of tubulin polymerization (turbidimetry); type: biochemical, pig; conditions: tubulin 10 μm (1 mg/ml), 37° C., turbidity at 350 nm; concentration that inhibits the rate of polymerization by 50%; read-out: Inhibition of tubulin polymerization IC 50 (μm)
T1 construct: Tubulin is purified from pig brain according to published methods; from tissue; host or cells: pig brain
T1 sequence (P02550 whole entry): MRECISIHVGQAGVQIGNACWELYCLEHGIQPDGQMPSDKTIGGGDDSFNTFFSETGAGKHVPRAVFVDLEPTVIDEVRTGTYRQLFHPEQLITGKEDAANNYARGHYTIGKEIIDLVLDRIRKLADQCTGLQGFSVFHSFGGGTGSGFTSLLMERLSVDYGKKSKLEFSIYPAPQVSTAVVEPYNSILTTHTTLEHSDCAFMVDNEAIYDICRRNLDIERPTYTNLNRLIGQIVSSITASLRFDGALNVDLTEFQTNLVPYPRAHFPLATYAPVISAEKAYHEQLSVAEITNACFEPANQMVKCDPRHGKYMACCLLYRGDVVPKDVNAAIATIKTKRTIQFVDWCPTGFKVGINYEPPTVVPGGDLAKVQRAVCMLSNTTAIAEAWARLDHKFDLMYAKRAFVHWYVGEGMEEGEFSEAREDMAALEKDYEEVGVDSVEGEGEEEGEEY
T1 sequence (P02554 whole entry): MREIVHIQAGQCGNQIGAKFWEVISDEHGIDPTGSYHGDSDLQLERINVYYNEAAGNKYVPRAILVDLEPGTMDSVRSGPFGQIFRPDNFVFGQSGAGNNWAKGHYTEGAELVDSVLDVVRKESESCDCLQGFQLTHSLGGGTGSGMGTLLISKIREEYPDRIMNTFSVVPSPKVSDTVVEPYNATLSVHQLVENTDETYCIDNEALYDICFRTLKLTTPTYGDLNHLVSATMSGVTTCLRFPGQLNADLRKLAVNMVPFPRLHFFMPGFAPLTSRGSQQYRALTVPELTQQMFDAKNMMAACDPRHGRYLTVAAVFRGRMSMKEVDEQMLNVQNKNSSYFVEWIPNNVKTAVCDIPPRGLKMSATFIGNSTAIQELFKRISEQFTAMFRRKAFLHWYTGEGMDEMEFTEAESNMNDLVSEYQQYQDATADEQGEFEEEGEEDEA
Description: Tubulin is purified from pig brain according to published methods (Shelanski et al., 1973, Proc. Natl. Acad. Sci. USA, 70, 765-768. Weingarten et al., 1975, Proc. Natl. Acad. Sci. USA, 72, 1858-1862). Briefly, the brains are ground and centrifuged in an extraction buffer. The tubulin contained in the supernatant of the extract undergoes two successive cycles of polymerization at 37° C. and depolymerization at 4° C., before being separated from the MAPs (Microtubule Associated Proteins) by chromatography on a phosphocellulose P11 column (Whatman). The tubulin thus isolated is more than 95% pure. It is stored in a buffer known as RB/2 30% glycerol, the composition of which is 50 mM MES-NaOH [2-(N-morpholino)ethanesulfonic acid], pH 6.8; 0.25 mM MgCl2; 0.5 mM EGTA; 30% glycerol (v/v), 0.2 mM GTP (guanosine-5′-triphosphate).
The polymerization of tubulin to microtubules is monitored by turbidimetry as follows: the tubulin is adjusted to a concentration of 10 μm (1 mg/ml) in RB/2 30% glycerol buffer to which 1 mM GTP and 6 mM MgCl2 are added. The polymerization is triggered by an increase in temperature from 6° C. to 37° C. in a cuvette with an optical path length of 1 cm, placed in a UVIKON 931 spectrophotometer (Kontron) equipped with a thermostatically maintained cuvette holder. The increase in the turbidity of the solution is monitored at 350 nm.
The products are dissolved at 10 mM in DMSO and added at variable concentrations (0.5 to 10 μm) to the tubulin solution before polymerization. The IC50 value is defined as the concentration of product that inhibits the rate of polymerization by 50%.

Compound: COc1cccc(-n2nc(C)cc2C(=O)N2CCN(c3ccc(C)c(C)c3)CC2)c1 [3/2]
IC50 (HCT116 cells; Homo sapiens, HCT-116, 48 h): 312 nM

Compound: COc1cccc(-n2nc(C)cc2C(=O)N2CCN(c3cccc(C)c3)CC2)c1 [3/3]
IC50 (HCT116 cells; Homo sapiens, HCT-116, 48 h): 87 nM | IC50 (tubulin): 1800 nM

Compound: COc1cccc(-n2nc(C)cc2C(=O)N2CCN(c3cc(Cl)ccc3C)CC2)c1 [3/4]
IC50 (HCT116 cells; Homo sapiens, HCT-116, 48 h): 389 nM | IC50 (tubulin): 1800 nM

Compound: COc1cccc(-n2nc(C)cc2C(=O)N2CCN(c3cc(Cl)ccc3OC)CC2)c1 [3/5]
IC50 (HCT116 cells; Homo sapiens, HCT-116, 48 h): 238 nM | IC50 (tubulin): 3000 nM

Compound: Cc1cc(C(=O)N2CCN(c3ccccc3)CC2)n(-c2ccccc2)n1 [3/6]
IC50 (HCT116 cells; Homo sapiens, HCT-116, 48 h): 177 nM | IC50 (tubulin): 4500 nM

Compound: COc1ccccc1N1CCN(C(=O)c2cc(C)nn2-c2ccccc2)CC1 [3/7]
IC50 (HCT116 cells; Homo sapiens, HCT-116, 48 h): 40 nM | IC50 (tubulin): 5600 nM

Compound: Cc1cc(C(=O)N2CCN(c3cccc(C(F)(F)F)c3)CC2)n(-c2ccccc2)n1 [3/8]
IC50 (HCT116 cells; Homo sapiens, HCT-116, 48 h): 841 nM | IC50 (tubulin): 6500 nM

Compound: Cc1cc(C(=O)N2CCN(c3cccc(C)c3C)CC2)n(-c2ccccc2)n1 [3/9]
IC50 (HCT116 cells; Homo sapiens, HCT-116, 48 h): 494 nM | IC50 (tubulin): 7000 nM

Compound: COc1cccc(N2CCN(C(=O)c3cc(C)nn3-c3ccccc3)CC2)c1 [3/10]
IC50 (HCT116 cells; Homo sapiens, HCT-116, 48 h): 25 nM | IC50 (tubulin): 2000 nM

Compound: Cc1cccc(N2CCN(C(=O)c3cc(C)nn3-c3ccccc3)CC2)c1 [3/11]
IC50 (HCT116 cells; Homo sapiens, HCT-116, 48 h): 36 nM | IC50 (tubulin): 3000 nM

Compound: Cc1cc(C(=O)N2CCN(c3cccc4ccccc34)CC2)n(-c2ccccc2)n1 [3/13]
IC50 (HCT116 cells; Homo sapiens, HCT-116, 48 h): 466 nM | IC50 (tubulin): 6000 nM

Compound: Cc1cc(C(=O)N2CCN(c3ccc4c(c3)OCCO4)CC2)n(-c2ccccc2)n1 [3/14]
IC50 (HCT116 cells; Homo sapiens, HCT-116, 48 h): 352 nM | IC50 (tubulin): 15000 nM

Compound: COc1cccc(N2CCN(C(=O)c3cc(C)nn3-c3ccccc3F)CC2)c1 [3/15]
IC50 (HCT116 cells; Homo sapiens, HCT-116, 48 h): 4 nM | IC50 (tubulin): 2000 nM

Compound: Cc1cccc(N2CCN(C(=O)c3cc(C)nn3-c3ccccc3F)CC2)c1 [3/16]
IC50 (HCT116 cells; Homo sapiens, HCT-116, 48 h): 224 nM | IC50 (tubulin): 6000 nM

Compound: Cc1cc(C(=O)N2CCN(c3ccc(C)c(C)c3)CC2)n(-c2cccc(F)c2)n1 [3/17]
IC50 (HCT116 cells; Homo sapiens, HCT-116, 48 h): 159 nM | IC50 (tubulin): 3500 nM

Compound: Cc1cc(C(=O)N2CCN(c3cccc(Cl)c3)CC2)n(-c2cccc(F)c2)n1 [3/18]
IC50 (HCT116 cells; Homo sapiens, HCT-116, 48 h): 28 nM | IC50 (tubulin): 2000 nM

Compound: Cc1cccc(N2CCN(C(=O)c3cc(C)nn3-c3cccc(F)c3)CC2)c1 [3/19]
IC50 (HCT116 cells; Homo sapiens, HCT-116, 48 h): 17 nM | IC50 (tubulin): 1800 nM

Compound: Cc1cc(C(=O)N2CCN(c3cccc4ccccc34)CC2)n(-c2cccc(F)c2)n1 [3/20]
IC50 (HCT116 cells; Homo sapiens, HCT-116, 48 h): 1850 nM | IC50 (tubulin): 3000 nM

Compound: Cc1cc(C(=O)N2CCN(c3cc(Cl)ccc3C)CC2)n(-c2cccc(F)c2)n1 [3/21]
IC50 (HCT116 cells; Homo sapiens, HCT-116, 48 h): 469 nM | IC50 (tubulin): 1800 nM

Compound: COc1ccc(Cl)cc1N1CCN(C(=O)c2cc(C)nn2-c2cccc(F)c2)CC1 [3/22]
IC50 (HCT116 cells; Homo sapiens, HCT-116, 48 h): 46 nM | IC50 (tubulin): 1500 nM

Compound: Cc1cc(C(=O)N2CCN(c3cccc(C(F)(F)F)c3)CC2)n(-c2ccc(F)cc2)n1 [3/23]
IC50 (HCT116 cells; Homo sapiens, HCT-116, 48 h): 434 nM | IC50 (tubulin): 3000 nM

Compound: Cc1cc(C(=O)N2CCN(c3ccc(F)cc3)CC2)n(-c2cccc(Cl)c2)n1 [3/24]
IC50 (HCT116 cells; Homo sapiens, HCT-116, 48 h): 239 nM | IC50 (tubulin): 5000 nM

Compound: COc1cccc(N2CCN(C(=O)c3cc(C)nn3-c3cccc(Cl)c3)CC2)c1 [3/25]
IC50 (HCT116 cells; Homo sapiens, HCT-116, 48 h): 40 nM | IC50 (tubulin): 1800 nM

Compound: CSc1ccccc1N1CCN(C(=O)c2cc(C)nn2-c2cccc(Cl)c2)CC1 [3/26]
IC50 (HCT116 cells; Homo sapiens, HCT-116, 48 h): 90 nM | IC50 (tubulin): 1500 nM

Next, values leading:

IC50 (HCT116 cells; Homo sapiens, HCT-116, 48 h): 217 nM | IC50 (tubulin): 4500 nM
Compound: Cc1ccc(-n2nc(C)cc2C(=O)N2CCN(c3cccc(Cl)c3)CC2)cc1 [3/27]

IC50 (HCT116 cells; Homo sapiens, HCT-116, 48 h): 269 nM | IC50 (tubulin): 7000 nM
Compound: Cc1ccc(-n2nc(C)cc2C(=O)N2CCN(c3cccc(C)c3)CC2)cc1 [3/28]

IC50 (HCT116 cells; Homo sapiens, HCT-116, 48 h): 452 nM | IC50 (tubulin): 5000 nM
Compound: CCc1ccccc1N1CCN(C(=O)c2cc(C)nn2-c2cccc(C)c2)CC1 [3/29]

IC50 (HCT116 cells; Homo sapiens, HCT-116, 48 h): 729 nM | IC50 (tubulin): 2900 nM
Compound: Cc1cccc(-n2nc(C)cc2C(=O)N2CCN(c3ccc(C)c(C)c3)CC2)c1 [3/30]

IC50 (HCT116 cells; Homo sapiens, HCT-116, 48 h): 140 nM | IC50 (tubulin): 1300 nM
Compound: Cc1cccc(-n2nc(C)cc2C(=O)N2CCN(c3cccc(Cl)c3)CC2)c1 [3/31]

IC50 (HCT116 cells; Homo sapiens, HCT-116, 48 h): 556 nM | IC50 (tubulin): 3000 nM
Compound: Cc1cccc(-n2nc(C)cc2C(=O)N2CCN(c3cccc4ccccc34)CC2)c1 [3/32]

IC50 (HCT116 cells; Homo sapiens, HCT-116, 48 h): 170 nM | IC50 (tubulin): 3000 nM
Compound: Cc1cc(C(=O)N2CCN(c3cc(Cl)ccc3C)CC2)n(-c2ccccc2)n1 [3/33]

IC50 (HCT116 cells; Homo sapiens, HCT-116, 48 h): 526 nM | IC50 (tubulin): 2500 nM
Compound: Cc1cc(C(=O)N2CCN(c3cccc(Cl)c3)CC2)n(-c2cccc(Cl)c2)n1 [3/34]

IC50 (HCT116 cells; Homo sapiens, HCT-116, 48 h): 284 nM | IC50 (tubulin): 5000 nM
Compound: COc1cccc(-n2nc(C)cc2C(=O)N2CCN(c3cccc(Cl)c3)CC2)c1 [3/35]

IC50 (HCT116 cells; Homo sapiens, HCT-116, 48 h): 119 nM | IC50 (tubulin): 1800 nM
Compound: Cc1cc(C(=O)N2CCN(c3cccc(Cl)c3Cl)CC2)n(-c2ccccc2)n1 [3/36]

IC50 (HCT116 cells; Homo sapiens, HCT-116, 48 h): 1440 nM | IC50 (tubulin): 20000 nM
Compound: Cc1cc(C(=O)N2CCN(c3cccc(Cl)c3)CC2)n(-c2ccccc2F)n1 [3/37]

IC50 (HCT116 cells; Homo sapiens, HCT-116, 48 h): 338 nM | IC50 (tubulin): 6000 nM
Compound: Cc1cc(C(=O)N2CCN(c3cccc(Cl)c3)CC2)n(-c2ccc(F)cc2)n1 [3/38]

IC50 (HCT116 cells; Homo sapiens, HCT-116, 48 h): 734 nM
Compound: COc1ccc(-n2nc(C)cc2C(=O)N2CCN(c3cccc(Cl)c3)CC2)cc1 [3/39]

IC50 (HCT116 cells; Homo sapiens, HCT-116, 48 h): 775 nM | IC50 (tubulin): 3000 nM
Compound: Cc1cc(C(=O)N2CCN(c3ccccc3)CC2)n(-c2cccc(Cl)c2)n1 [3/40]

IC50 (HCT116 cells; Homo sapiens, HCT-116, 48 h): 189 nM
Compound: COc1ccccc1N1CCN(C(=O)c2cc(C)nn2-c2ccccc2F)CC1 [3/85]

IC50 (HCT116 cells; Homo sapiens, HCT-116, 48 h): 299 nM
Compound: Cc1cc(C(=O)N2CCN(c3ccc(Cl)c(Cl)c3)CC2)n(-c2ccccc2)n1 [3/110]

IC50 (HCT116 cells; Homo sapiens, HCT-116, 48 h): 40 nM
Compound: COc1ccccc1N1CCN(C(=O)c2cc(C)nn2-c2cccc(Cl)c2)CC1 [3/120]

IC50 (HCT116 cells; Homo sapiens, HCT-116, 48 h): 8740 nM
Compound: Cc1cc(C(=O)N2CCN(c3ccc(C(F)(F)F)cc3)CC2)n(-c2cccc(Cl)c2)n1 [3/126]

IC50 (HCT116 cells): 255 nM
Compound: COc1ccccc1N1CCN(C(=O)c2cc(C)nn2-c2ccccc2F)CC1 [3/144]

IC50 (tubulin): 2900 nM
Compound: COc1cc(OC)cc(N2CCN(C(=O)c3c(F)c(F)nn3-c3ccccc3)CC2)c1 [Example E139, [4-(3,5-dimethoxyphenyl)piperazin-1-yl](4,5-difluoro-2-phenyl-2H-pyrazol-3-yl)methanone]

IC50 (tubulin): 16500 nM
Compound: Cc1cc(C(=O)N2CCN(c3cncc(O)c3)CC2)n(-c2ccccc2)n1 [Example E140, [4-(5-hydroxypyrid-3-yl)piperazin-1-yl](5-methyl-2-phenyl-2H-pyrazol-3-yl)-methanone]

IC50 (tubulin): 3200 nM
Compound: N-{{3-{[4-(3,5-Dimethoxyphenyl)piperazin-1-yl]carbonyl}-2-phenyl-2H-pyrazin-5-yl}glycine tert-butyl ester [Example E137]
